Assay results reported in US12116636B2, “Methods for evaluating tumor cell spheroids using 3D microfluidic cell culture device” (Dana-Farber Cancer Institute, Inc., priority 2017, dated 2024).
Where two headings read alike, the source gives them in different places.

What was measured:
Test in all cases: SelectScreen Kinase Profiling, biochemical single point inhibition
off-target kinases [1] = molecular target: T1, off-target kinases (Homo sapiens, UniProt Q02156); conditions: ATP Km, ZLYTE
T1 sequence (Q02156 1-737): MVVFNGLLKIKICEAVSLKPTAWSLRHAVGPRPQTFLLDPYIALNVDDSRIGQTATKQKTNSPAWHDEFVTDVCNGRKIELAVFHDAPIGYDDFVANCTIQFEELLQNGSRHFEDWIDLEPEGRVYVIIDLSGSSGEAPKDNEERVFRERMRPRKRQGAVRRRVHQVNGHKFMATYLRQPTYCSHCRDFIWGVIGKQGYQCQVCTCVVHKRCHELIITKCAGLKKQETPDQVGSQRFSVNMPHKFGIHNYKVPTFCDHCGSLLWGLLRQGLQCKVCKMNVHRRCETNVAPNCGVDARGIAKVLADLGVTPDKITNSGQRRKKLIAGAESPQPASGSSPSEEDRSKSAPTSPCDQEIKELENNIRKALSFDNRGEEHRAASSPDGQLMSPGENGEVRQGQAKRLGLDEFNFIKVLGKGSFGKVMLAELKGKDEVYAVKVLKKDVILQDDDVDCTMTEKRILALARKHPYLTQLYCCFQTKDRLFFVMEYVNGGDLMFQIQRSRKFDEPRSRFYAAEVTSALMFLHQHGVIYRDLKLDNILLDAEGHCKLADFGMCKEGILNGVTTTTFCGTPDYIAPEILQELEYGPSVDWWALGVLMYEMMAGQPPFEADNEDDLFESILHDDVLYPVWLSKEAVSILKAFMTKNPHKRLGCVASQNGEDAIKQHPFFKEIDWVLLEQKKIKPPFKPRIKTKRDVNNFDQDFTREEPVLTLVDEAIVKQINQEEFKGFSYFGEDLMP
Description: (§1) Biochemical single point inhibition and IC50 concentrations for TBK1, IKKε (IKBKE), and off-target kinases were determined at ThermoFisher Scientific using SelectScreen Kinase Profiling Services (Madison, WI, USA) (Tables S4A and S4B-1-7). To determine cellular potency, the human colorectal cancer carcinoma cell line HCT116 (ATCC, Manassas, VA) was maintained in T175 flasks in complete RPMI medium; RPMI 1640 supplemented with 10% FBS, 1× Penicillin-Streptomycin solution and 1× MEM (non-essential amino acids). HCT116 cells were grown to 90-95% confluency in T175 flasks containing complete RPMI medium and transfected in bulk using Lipofectamine 2000 (Invitrogen, Carlsbad, CA) with 70 μg of ISG54-luciferase reporter plasmid (Elim Biopharmaceuticals Inc., Hayward, CA). The reporter plasmid contains a luciferase gene expression cassette under the transcriptional regulation of the promoter of the human interferon stimulated gene 54 (ISG54). Transfection of the cells was allowed to take place for 6 hours, after which the cells were harvested by treatment with 0.25% trypsin EDTA (Corning Inc., Corning, NY). Trypsinized cells were added to 384-well poly-d-lysine treated black clear bottom tissue culture assay plates (Greiner Bio-One GmbH, Kremsmunster, Austria) at a density of 20,000 cells/well in 80 μL of complete RPMI medium and incubated overnight. After 16-18 hours post-transfection, the assay plates were washed with PBS (Corning Inc., Corning, NY), followed by addition of 80 μL/well of serum-free RPMI 1640 medium containing 1× Penicillin-Streptomycin solution, 1× MEM and 350 nL of DMSO or titrations of Compound 1. Compound 1 titrations were generated by 1.5-fold dilution steps in two overlapping serial dilution series to generate a 40-point compound dose range. After incubation at 37° C. for 1 hour, the cells were stimulated with Poly(I:C) (InvivoGen, San Diego, CA) at a final concentration of 15 μg/mL in Optimem media (Life Technologies, Rockville, MD). The assay plates were incubated for 5 hours at 37° C., followed by addition of One-Glo luciferase firefly reagent (Promega, Madison, WI) at 1:1 volume/well and luminescence was measured in an EnVision Multilabel Plate Reader (PerkinElmer, Santa Clara, CA). The EC50 values were calculated from the fit of the dose-response curves to a four-parameter equation. All EC50 values represent geometric mean values of a minimum of four determinations.

off-target kinases [2] = molecular target: off-target kinases (Homo sapiens, UniProt Q16644); conditions: MAPKAPK3, ATP Km app, ZLYTE
Description: as §1

off-target kinases [3] = conditions: 1000 μM
Description: as §1

[4] = EGFR (ErbB1) d746-750 (mutant), LanthaScreen Binding
[5] = PRKCB2 (PKC beta II), ATP Km app, ZLYTE
[6] = TEK (TIE2) mutant (mutation name not given), LanthaScreen

Chain of off-target kinases (Homo sapiens, UniProt Q16644) (Q16644 whole entry): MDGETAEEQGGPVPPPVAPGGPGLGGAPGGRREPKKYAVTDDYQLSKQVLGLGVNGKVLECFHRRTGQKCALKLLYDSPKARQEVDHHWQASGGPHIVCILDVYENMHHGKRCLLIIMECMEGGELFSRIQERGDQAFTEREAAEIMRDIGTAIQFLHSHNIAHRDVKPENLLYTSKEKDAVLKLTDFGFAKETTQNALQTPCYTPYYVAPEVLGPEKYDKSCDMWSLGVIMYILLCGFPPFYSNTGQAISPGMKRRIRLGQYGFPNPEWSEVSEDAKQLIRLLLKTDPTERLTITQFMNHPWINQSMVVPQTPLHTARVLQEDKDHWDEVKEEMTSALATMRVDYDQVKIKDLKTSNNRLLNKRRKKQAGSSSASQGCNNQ

N#Cc1cc(-c2ncnc(Nc3ccc(N4CCN(C5COC5)CC4)cc3)n2)ccc1OC1CCOCC1 [Compound 1, 5-(4-((4-(4-(oxetan-3-yl)piperazin-1-yl)phenyl)amino)-1,3,5-triazin-2-yl)-2-((tetrahydro-2H-pyran-4-yl)oxy)benzonitrile]
inhibition (off-target kinases [1]; PRKCE (PKC), read-out: % Inhibition 1): 1%
inhibition (off-target kinases [1]; PRKCE (PKC), read-out: % Inhibition Avg): -3%
inhibition (off-target kinases [1]; PRKCE PKC, read-out: % Inhibition 2): -6%
inhibition (off-target kinases [2]; read-out: % Inhibition 1): 1%
inhibition (off-target kinases [2]; read-out: % Inhibition 2): -8%
inhibition (off-target kinases [2]; read-out: % Inhibition Avg): -3%
% Inhibition 1 (off-target kinases [3]; [4]): 14%
% Inhibition 2 (off-target kinases [3]; [4]): 13%
% Inhibition Avg (off-target kinases [3]; [4]): 14%
% Inhibition 1 (off-target kinases [3]; FLT3 ITD, LanthaScreen Binding): 64%
% Inhibition 2 (off-target kinases [3]; FLT3 ITD, LanthaScreen Binding): 62%
% Inhibition Avg (off-target kinases [3]; FLT3 ITD, LanthaScreen Binding): 63%
% Inhibition 1 (off-target kinases [3]; FYN A, LanthaScreen Binding): 16%
% Inhibition Avg (off-target kinases [3]; FYN A, LanthaScreen Binding): 18%
% Inhibition 1 (off-target kinases [3]; LYN B, ATP Km app, ZLYTE): 56%
% Inhibition 2 (off-target kinases [3]; LYN B, ATP Km app, ZLYTE): 50%
% Inhibition Avg (off-target kinases [3]; LYN B, ATP Km app, ZLYTE): 53%
% Inhibition 2 (off-target kinases [3]; MAP3K7/MAP3K7IP1 (TAK1-TAB1), LanthaScreen Binding): 22%
% Inhibition 1 (off-target kinases [3]; [5]): 12%
% Inhibition 2 (off-target kinases [3]; [5]): 8%
% Inhibition Avg (off-target kinases [3]; [5]): 10%
% Inhibition 1 (off-target kinases [3]; SRC N1, ATP Km app, ZLYTE): 54%
% Inhibition 2 (off-target kinases [3]; SRC N1, ATP Km app, ZLYTE): 60%
% Inhibition Avg (off-target kinases [3]; SRC N1, ATP Km app, ZLYTE): 57%
% Inhibition 1 (off-target kinases [3]; [6]): 40%
% Inhibition 2 (off-target kinases [3]; [6]): 41%
% Inhibition Avg (off-target kinases [3]; [6]): 41%
